Where two headings read alike, the source gives them in different places.
How the values were obtained:
[1] = target: Recombinant GGDPS (Homo sapiens (Human), UniProt O95749); experiment: GGDPS enzyme assay; assay type: biochemical; conditions: for Selectivity for GGDPS to FDPS: ratio FDPS IC50 / GGDPS IC50
Method: (§1) FIG. 9 GGDPS and FDPS enzyme assay data for compounds 19, 20, and 21. Each assay was performed in three independent experiments (R1, R2, R3) and each compound was tested in duplicate at each concentration.
(§2) Each assay was performed in three independent experiments (R1, R2, R3) and each compound was tested in duplicate at each concentration.
GGDPS Enzyme assay (FIG. 9, 10, 11): Recombinant GGDPS was obtained from MyBioSource (San Diego, CA). Recombinant enzyme (20 nM GGDPS) was incubated with assay buffer (50 mM Tris-HCl, pH 7.7, 20 mM MgCl2, 5 mM TCEP, 5 μg/mL BSA) and test compounds for 10 minutes at room temperature. The reaction was initiated by the addition of 10 μM FPP and 10 μM [^14C]-IPP and was carried out at 37° C. for 30 minutes. The reaction was stopped by the addition of saturated NaCl. Radiolabeled GGPP was extracted with n-butanol and counted via liquid scintillation counting. CompuSyn software (ComboSyn, Inc.) was used to analyze the concentration response curves and determine the IC50 values.

[2] = target: FDPS (Homo sapiens (Human), UniProt P14324); experiment: FDPS enzyme assay; assay type: biochemical
Method: as §1, §2

[3] = test system: RPMI-8226 cells; experiment: Cellular protein geranylgeranylation: Rap1a immunoblot plus intracellular lambda light chain ELISA; assay type: cell-based, Human; conditions: 48 h; for Cellular LEC (lowest effective concentration): lowest concentration with visible unmodified Rap1a band and statistically significant increase in intracellular lambda light chain; for relative cellular activity (comparison in words): myeloma cells
Method: (§3) RPMI-8226 cells were incubated for 48 h in the presence or absence of lovastatin (Lov, 10 μM) or varying concentrations of the test compounds. Intracellular lambda light chain concentrations were determined via ELISA. Data are expressed as a percentage of control (mean±SD, n=3). The * denotes p<0.05 per unpaired two-tailed t-test.
The impact of substituents at the α-carbon of the compounds disclosed herein on cellular activity was assessed in myeloma cells. Impairment of cellular protein geranylgeranylation was determined via two methods: 1) ELISA for intracellular lambda light chain which is a marker for disruption of Rab GTPase geranyl-geranylation (FIGS. 1, 3, 5, 7) and 2) immunoblot analysis for unmodified Rap1a (a substrate of GGTase I) (FIGS. 2, 4, 6, 8). Lovastatin, an HMG-CoA reductase inhibitor, was included as a positive control. […] Next, the impact of the olefin stereochemistry on biological activity was determined.
Immunoblot analysis (FIG. 2, 4, 6, 8): Multiple myeloma cells were incubated (37° C. and 5% CO2) with test compounds for 48 hours in RPMI-1640 media containing 10% fetal bovine serum and penicillin-streptomycin. Whole cell lysate was obtained using RIPA buffer (0.15 M NaCl, 1% sodium deoxycholate, 0.1% SODS, 1% Triton (v/v) X-100, 0.05 M Tris HCl) containing protease and phosphatase inhibitors. Protein content was determined using the bicinchoninic acid (BCA) method (Pierce Chemical, Rockford, IL). Equivalent amounts of cell lysate were resolved by SODS-PAGE, transferred to polyvinylidene difluoride membrane, probed with the appropriate primary antibodies, and detected using HRP-linked secondary antibodies and Bio-Rad Clarity ECL Substrate Western blotting reagents per manufacturer's protocols.
(§4) Lambda light chain ELISA (FIG. 1, 3, 5, 7): Human lambda light chain kit (Bethyl Laboratories, Montgomery, TX) was used to quantify intracellular monoclonal protein levels of whole cell lysate. Lambda light chain levels were normalized to total protein levels (as determined by BCA).

[4] = test system: RPMI-8226 cells; experiment: Lambda light chain ELISA (intracellular lambda light chain, marker of Rab GTPase geranylgeranylation disruption); assay type: cell-based, Human; conditions: 48 h
Method: as §3, §4

[5] = 20 nM recombinant GGDPS, 10 μM FPP, 10 μM [14C]-IPP, 37° C. 30 minutes, read-out: GGDPS IC50

Recombinant GGDPS, sequence (O95749 whole entry): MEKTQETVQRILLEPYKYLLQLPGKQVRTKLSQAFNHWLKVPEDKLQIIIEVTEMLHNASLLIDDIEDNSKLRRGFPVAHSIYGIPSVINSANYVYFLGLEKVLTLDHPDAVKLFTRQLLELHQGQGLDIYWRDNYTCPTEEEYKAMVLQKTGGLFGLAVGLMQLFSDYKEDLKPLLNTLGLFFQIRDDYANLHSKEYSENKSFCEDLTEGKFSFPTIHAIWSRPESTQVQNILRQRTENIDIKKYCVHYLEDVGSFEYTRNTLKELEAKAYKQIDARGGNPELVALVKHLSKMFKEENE
FDPS, sequence (P14324 whole entry, species assumed): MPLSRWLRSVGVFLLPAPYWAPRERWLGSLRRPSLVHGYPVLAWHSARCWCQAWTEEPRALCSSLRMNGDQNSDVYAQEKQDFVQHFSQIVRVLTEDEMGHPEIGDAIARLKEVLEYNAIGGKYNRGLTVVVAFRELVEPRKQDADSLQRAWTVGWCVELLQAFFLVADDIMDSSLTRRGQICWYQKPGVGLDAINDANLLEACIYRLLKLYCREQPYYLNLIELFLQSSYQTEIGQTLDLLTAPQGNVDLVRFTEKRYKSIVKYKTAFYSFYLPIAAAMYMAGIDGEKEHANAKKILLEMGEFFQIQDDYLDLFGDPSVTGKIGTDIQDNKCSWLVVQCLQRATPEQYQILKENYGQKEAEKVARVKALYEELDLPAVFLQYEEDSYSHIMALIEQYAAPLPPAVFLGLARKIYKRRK

SMILES	IC50 [1] [µM]	relative GGDPS inhibitory activity in enzymatic assays (comparison in words) [1]	Selectivity for GGDPS to FDPS [1]	IC50 [2] [µM]	Cellular LEC (lowest effective concentration) [3] [µM]	relative cellular activity (comparison in words) [3]	IC50 [1, 5] [µM]	IC50 ([2]; read-out: FDPS IC50) [µM]	cellular potency of Z-isomer relative to the E-isomer 21 ([4]; FIG. 5, RPMI-8226 cells)	specificity (selectivity) for GGDPS over FDPS [1]	improvement in cellular activity of POM-version versus corresponding salt 17 ([4]; FIG. 7, RPMI-8226 cells)
CC(C)=CCCC(C)=CCCn1cc(CC(C)(P(=O)([O-])[O-])P(=O)([O-])[O-])nn1.[Na+].[Na+].[Na+].[Na+] [Compound 16, Sodium (1-(1-(4,8-dimethylnona-3,7-dien-1-yl)-1H-1,2,3-triazol-4-yl)propane-2,2-diyl)bis(phosphonate)]	1.27 ± 0.303	very similar to the individual isomers	49	62.2 ± 7.22	0.1	–	–	–	–	–	–
CC(C)=CCC/C(C)=C\CCn1cc(CC(C)(P(=O)([O-])[O-])P(=O)([O-])[O-])nn1.[Na+].[Na+].[Na+].[Na+] [Compound 17, Sodium (Z)-(1-(1-(4,8-dimethylnona-3,7-dien-1-yl)-1H-1,2,3-triazol-4-yl)propane-2,2-diyl)bis(phosphonate)]	0.92 ± 0.089	–	>108	> 100	0.1	–	–	–	–	–	–
CC(C)=CCC/C(C)=C/CCn1cc(CC(C)(P(=O)([O-])[O-])P(=O)([O-])[O-])nn1.[Na+].[Na+].[Na+].[Na+] [Compound 18, Sodium (E)-(1-(1-(4,8-dimethylnona-3,7-dien-1-yl)-1H-1,2,3-triazol-4-yl)propane-2,2-diyl)bis(phosphonate)]	20.5 ± 2.3	–	3.5	71.4 ± 24.2	5.0	slightly more potent than the Z-isomer	–	–	–	–	–
CC(C)=CCCC(C)=CCn1cc(CC(C)(P(=O)([O-])[O-])P(=O)([O-])[O-])nn1.[Na+].[Na+].[Na+].[Na+] [Compound 19, Sodium (1-(1-(3,7-dimethylocta-2,6-dien-1-yl)-1H-1,2,3-triazol-4-yl)propane-2,2-diyl)bis(phosphonate)]	–	more potent than its corresponding non-methylated analogue 31	241	–	0.03	–	0.1 ± 0.019	24.1 ± 3.15	–	–	–
CC(C)=CCC/C(C)=C\Cn1cc(CC(C)(P(=O)([O-])[O-])P(=O)([O-])[O-])nn1.[Na+].[Na+].[Na+].[Na+] [Compound 20, Sodium (Z)-(1-(1-(3,7-dimethylocta-2,6-dien-1-yl)-1H-1,2,3-triazol-4-yl)propane-2,2-diyl)bis(phosphonate)]	–	more potent than the E isomer 21	693	–	0.025	–	0.086 ± 0.022	59.6 ± 15	approximately 50 fold	–	–
CC(C)=CCC/C(C)=C/Cn1cc(CC(C)(P(=O)([O-])[O-])P(=O)([O-])[O-])nn1.[Na+].[Na+].[Na+].[Na+] [Compound 21, Sodium (E)-(1-(1-(3,7-dimethylocta-2,6-dien-1-yl)-1H-1,2,3-triazol-4-yl)propane-2,2-diyl)bis(phosphonate)]	–	–	345	–	0.02	–	0.125 ± 0.027	43.1 ± 2.98	–	at least 3.5 fold	–
CC(C)=CCC/C(C)=C\CCn1cc(CC(C)(P(=O)(OCOC(=O)C(C)(C)C)OCOC(=O)C(C)(C)C)P(=O)(OCOC(=O)C(C)(C)C)OCOC(=O)C(C)(C)C)nn1 [Compound 25, (Z)-(((1-(1-(4,8-dimethylnona-3,7-dien-1-yl)-1H-1,2,3-triazol-4-yl)propane-2,2-diyl)bis(oxo-15-phosphanetriyl))tetrakis(oxy))tetrakis(methylene) tetrakis(2,2-dimethylpropanoate)]	–	–	–	–	–	–	–	–	–	–	approximately 10 fold
CCC(Cc1cn(C/C=C(\C)CCC=C(C)C)nn1)(P(=O)(O)O)P(=O)(O)O [Compound 28]	–	–	16	–	2.5	less potent than either the parent compound 31	5.85 ± 1.3	94.3 ± 20.6	–	–	–

Source: US12083137B2, “Triazole bisphosphonate geranylgeranyl diphosphate synthase inhibitors” (BOARD OF REGENTS OF THE UNIVERSITY OF NEBRASKA, priority 2017, dated 2024)
